Data from patent publication US20080199423A1, “Methods of Using Apo2l Receptor Agonists and Ink Cell Activators” (GENENTECH, INC., priority 2004, published 2008).

Tests used:
[1] = tested on: Apo2L/TRAIL protein in NK cells; test: Quantitative ELISA of Apo2L/TRAIL protein in NK cell lysates or supernatants; format: cell-based, human; conditions: stimulated NK cells
Description: Resting and poly(I:C) stimulated NK cell lysates or their culture supernatants were assessed for the presence of Apo2L/TRAIL protein by quantitative ELISA (kit, BD Biosciences). To confirm Apo2L/TRAIL protein expression was increased following activation of NK cells with poly(I:C) or R848, an ELISA was performed.

[2] = tested on: Apo2L/TRAIL mRNA in NK cells; test: RT-QPCR of Apo2L/TRAIL message in treated NK cells; format: cell-based, human; conditions: NK cells treated 18 hours; normalized to RPL19
Description: In another experiment, the purified NK cells were treated for 18 hours in RPMI 1640 supplemented with heat inactivated 10% FCS, penicillin, streptomycin, 10 mM sodium pyruvate, 2 mM L-glutamine and 10 mM HEPES with poly(I:C) (50 μg/ml), R-848 (5 μg/ml) or hIFN-alpha (1000 U/ml, Sigma) in the presence or absence of 10 μg/ml cycloheximide and Apo2L/TRAIL was measured in the extracted RNA. RT-PCR was performed and the amount of cDNA was quantitated by RT-QPCR analysis, normalized to RPL19, and fold induction over control is shown in FIG. 2A. Primers were designed as per instructions (Primer Express) and sequences are: hRPL19-probe: […] (SEQ ID NO:7); hRPL19-For: […] (SEQ ID NO:8); hRPL19-Rev: […] (SEQ ID NO:9); hApo2L-probe: […] (SEQ ID NO:10); hApo2L-For: […] (SEQ ID NO:11); hApo2L-Rev: […] (SEQ ID NO:12). cDNA was analyzed for expression of RPL19 and Apo2L/TRAIL by RT-QPCR (Applied Biosystems) as described in Zarember et al., J. Immunol., 168(2):554-61 (2002). Fold increase values are expressed as arbitrary units, relative to the calibrator gene RPL19.

[3] = tested on: 4T1 cells; test: 51Cr release cytotoxicity assay, purified human NK cells on 4T1 target cells; format: cell-based, mouse; conditions: NK cells treated for 18 hours with agent; 4 hour incubation; E:T 1:1 to 50:1
Description: 4T1 cells (a metastatic mammary carcinoma cell line derived from BALE/C mice, obtained from Fred Miller, Karmanos Cancer Institute) were assayed in an in vitro cytotoxicity assay to examine tumoricical effects of various Toll receptor (“TLR”) activators and NK cells. The 4T1 target cells were cultured in IDMEM medium supplemented with 10% FCS, glutamine and penicillin/streptomycin, labeled with 100 mCi ^51Cr for 1 hour at 37° C. and then washed three times with culture medium.
To prepare purified effector NK cells for the assay, PBMCs from healthy human donors were isolated by standard density-gradient centrifugation over Ficoll-Paque Plus (Pharmacia). CD3 positive cells were first depleted using anti-CD3 microbeads (obtained from Miltenyi), and then the NK cells were purified using anti-CD56 microbeads (Miltenyi). The purity of the NK cell preparation was 95% or higher as determined by staining with mouse anti-human CD56 PE and mouse anti-human CD14 PE conjugates (BD Biosciences). The isolated cells were cultured in RPMI 1640 supplemented with heat inactivated 10% FCS, penicillin, streptomycin, 10 mM sodium pyruvate, 2 mM L-glutamine and 10 mM HEPES.
10^4 of the labeled 4T1 cells were added to varying numbers of purified NK cells (either untreated control NK cells or NK cells treated with specific agent) at ratios of 1:1, 3:1, 6:1, 12:1, 25:1, and 50:1, respectively. NK cells were treated for 18 hours with one of the following TLR activating agents: sBLP (1 μg/ml, Bachem); poly(I:C) (50 μg/ml, Pharmacia); E. coli 055:B5 LPS (phenol extracted, 1 μg/ml, Sigma); Flagellin (1 μg/ml, A. Gewirtz, Emory Univerity); R-848 (5 μg/ml, Invivogen); CpG oligonucleotides (2006 and 2216, 5 μM, Invivogen). The cytotoxicity assays were performed in round bottom 96 well plates, and the samples were incubated in duplicate wells for 4 hours at 37° C., 5% CO2. RPMI 1640 supplemented with heat inactivated 10% FCS, penicillin, streptomycin, 10 mM sodium pyruvate, 2 mM L-glutamine and 10 mM HEPES was used during incubation.
After the 4 hour incubation, supernatants were aspirated from the wells and examined for ^51Cr release using a Gamma counter. The percent specific lysis was calculated as 100× (experimental cpm-spontaneous cpm)/(total cpm-spontaneous cpm). The data are representative of at least three experiments and <5% SD was observed.
A cytotoxicity assay was performed as described in Example 1, except for the following modifications. Purified NK cells were treated with poly(I:C) or R-848 overnight and incubated with 4T1 cells. The role of TNF-alpha, FasL, and Apo2L/TRAIL was evaluated by preincubation of the NK cells with neutralizing antibodies to the respective ligands. The following neutralizing antibodies were added at final concentration of 2 μg/ml: anti-Fas-L (mIgG2b, R&D Systems), anti-TNF-alpha (mIgG1, Genentech), and anti-Apo2L/TRAIL (5C2, mIgG2a, ATCC HB-12258 and 1D1, mIgG2b; ATCC HB-12257). Isotype control antibodies were obtained from BD Biosciences.
For the cytotoxicity assays, target cells were labeled with 100 mCi ^51Cr for 1 hour at 37° C. and then washed 3 times before use. 10^4 target cells were added to varying numbers of effector cells at the indicated ratios and incubated in duplicate wells for 4 hours at 37° C., 5% CO2, and supernatants were used to determine ^51Cr released using a Gamma counter. The cytotoxicity assays were performed in round bottom 96 well plates and the percent specific lysis was calculated as 100× (experimental cpm-spontaneous cpm)/(total cpm-spontaneous cpm). The role of Apo2L/TRAIL expressed by NK cells in the lysis of target cells was evaluated using anti-Apo2L/TRAIL mAbs (5C2 and 1D1, Genentech, Inc.). Isotype control antibodies were obtained from BD Biosciences.

poly(I:C)
Apo2L/TRAIL protein in NK cell lysates [1]: present in a cell-associated form
Apo2L/TRAIL released into supernatants [1]: No significant levels
Increase of Apo2L/TRAIL mRNA over control [2]: 26 fold
Lysis of 4T1 cells by NK cells treated with TLR activating agent [3]: efficiently lysed
